{"source": "patent US20020137929A1", "about": "“1 - (3-heterocyclylphenyl) isothiourea, -isourea, -guanidine and -amidine herbicidal agents” (Intellectual Property Department, BASF Aktiengesellschaft, priority 1998, published 2002)", "key": {"[1]": {"tested_on": "GLXMAW (Soybean, Williams)", "assay": "Preemergence herbicidal evaluation", "type": "in vivo, Glycine max, (L.) Merr. cv Williams", "conditions": "rated 4-5 weeks after treatment, rating scale 0-9", "procedure,_shortened": "(§1)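 Visual 0-9 rating vs control (stand, vigor, malformation, size, chlorosis, overall appearance), scored 4-5 wk after spraying. Seeded soil cups were treated preemergence with compound in aqueous acetone, ~0.0156-0.500 kg/ha equivalent.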"}, "[2]": {"tested_on": "CHEAL (Lambsquarters, Common)", "assay": "Postemergence herbicidal evaluation", "type": "in vivo, Chenopodium album", "conditions": "postemergence", "procedure,_shortened": "(§2)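 Two-week-old seedlings sprayed with compound in 50/50 acetone/water plus 0.5% TWEEN 20, at about 0.0156 to 0.500 kg/ha, nozzle at 40 psi. Kept in greenhouse; rated visually 4-5 weeks after treatment on a 0-9 scale versus control, repeat tests averaged.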"}, "ORYSAT (Rice, Tebonnet)": {"tested_on": "ORYSAT (Rice, Tebonnet)", "assay": "Rice tolerance to post-transplant applications, flooded paddy conditions (Table III)", "type": "in vivo, Oryza sativa, (L.) Tebonnet", "conditions": "in vivo", "method": "Results of herbicide evaluation are expressed on a rating scale (0-9). The scale is based upon a visual observation of plant stand, vigor, malformation, size, chlorosis and overall plant appearance as compared with a control.\nThe tolerance of transplanted rice to post-transplanted herbicide applications is determined as follows: two ten-day-old rice seedlings (cv. Tebonnet) are transplanted into silt loam soil in 32 oz. plastic containers with a diameter of 10.5 cm and no drainage holes. After transplanting, the containers are flooded and the water level is maintained at 1.5 to 3 cm above the soil surface. Three days after transplanting, the flooded soil surface of the containers is treated with the selected aqueous/acetone 50/50 v/v mixture containing the test compounds to provide the equivalent of about 0.0313 to 0.500 kg/ha of active ingredient. The treated containers are placed on greenhouse benches, watered such that the water level is maintained as stated above, and cared for in accordance with conventional greenhouse procedures. Three to four weeks after treatment, the test is terminated and each container is examined and herbicidal effect rated according to the rating system provided in Example 37. The compounds evaluated are reported by compound number given in Example 37.\nPlant species employed in this example are reported by header abbreviation, common name and scientific name."}, "ECHCG (Barnyardgrass)": {"tested_on": "ECHCG (Barnyardgrass)", "assay": "Preemergence herbicidal evaluation", "type": "in vivo, Echinochloa crus-galli", "conditions": "rated 4-5 weeks after treatment, rating scale 0-9", "procedure,_shortened": "as §1"}, "[3]": {"tested_on": "IPOHE (Morningglory, Ivyleaf)", "assay": "Postemergence herbicidal evaluation", "type": "in vivo, Ipomoea hederacea", "conditions": "postemergence", "procedure,_shortened": "as §2"}, "GALAP (Galium)": {"tested_on": "GALAP (Galium)", "assay": "Preemergence herbicidal evaluation", "type": "in vivo, Galium aparine", "conditions": "rated 4-5 weeks after treatment, rating scale 0-9", "procedure,_shortened": "as §1"}}, "data": [{"smiles": "COc1ccc(CN2C(=O)CSC2=Nc2cc(-n3c(=O)cc(C(F)(F)F)n(C)c3=O)c(F)cc2Cl)cc1OC", "note": "[Compound 134, 3-{4-Chloro-5-{[3-(3,4-dimethoxybenzyl)-4-oxo-2-thiazolidinylidene]amino}-2-fluorophenyl}-1-methyl-6-(trifluoromethyl)-2,4(1H,3H)-pyrimidinedione]", "values": [{"measurement": "Preemergence herbicidal rating GLXMAW", "setting": "[1]; rate 0.1250 kg/ha", "value": 0.0}, {"measurement": "Preemergence herbicidal rating GLXMAW", "setting": "[1]; rate 0.2500 kg/ha", "value": 0.0}, {"measurement": "herbicidal rating CHEAL", "setting": "[2]; rate 0.0156 kg/ha", "value": 1.0}, {"measurement": "herbicidal rating CHEAL", "setting": "[2]; rate 0.0313 kg/ha", "value": 3.0}, {"measurement": "herbicidal rating CHEAL", "setting": "[2]; rate 0.0625 kg/ha", "value": 4.0}, {"measurement": "herbicidal effect rating, ORYSAT (rice tolerance)", "setting": "ORYSAT (Rice, Tebonnet)", "value": 2.0}, {"measurement": "Preemergence herbicidal rating ECHCG", "setting": "ECHCG (Barnyardgrass); rate 0.1250 kg/ha", "value": 0.0}, {"measurement": "Preemergence herbicidal rating ECHCG", "setting": "ECHCG (Barnyardgrass); rate 0.2500 kg/ha", "value": 0.0}, {"measurement": "herbicidal rating IPOHE", "setting": "[3]; rate 0.0156 kg/ha", "value": 3.0}, {"measurement": "herbicidal rating IPOHE", "setting": "[3]; rate 0.0313 kg/ha", "value": 9.0}, {"measurement": "herbicidal rating IPOHE", "setting": "[3]; rate 0.0625 kg/ha", "value": 9.0}, {"measurement": "Preemergence herbicidal rating GALAP", "setting": "GALAP (Galium); rate 0.1250 kg/ha", "value": 1.0}, {"measurement": "Preemergence herbicidal rating GALAP", "setting": "GALAP (Galium); rate 0.2500 kg/ha", "value": 0.0}]}, {"smiles": "Cn1c(C(F)(F)F)cc(=O)n(-c2cc(N=C3SCC(=O)N3Cc3ccc(S(N)(=O)=O)cc3)c(Cl)cc2F)c1=O", "note": "[Compound 135, Alpha-{2-{{2-chloro-5-[3,6-dihydro-3-methyl-2,6-dioxo-4-(trifluoromethyl)-1(2H)-pyrimidinyl]-4-fluorophenyl}imino}-4-oxo-3-thiazolidinyl}-p-toluenesulfonamide]", "values": [{"measurement": "Preemergence herbicidal rating GLXMAW", "setting": "[1]; rate 0.0156 kg/ha", "value": 0.0}, {"measurement": "Preemergence herbicidal rating GLXMAW", "setting": "[1]; rate 0.0313 kg/ha", "value": 0.0}, {"measurement": "Preemergence herbicidal rating GLXMAW", "setting": "[1]; rate 0.0625 kg/ha", "value": 0.0}, {"measurement": "Preemergence herbicidal rating GLXMAW", "setting": "[1]; rate 0.1250 kg/ha", "value": 1.0}, {"measurement": "Preemergence herbicidal rating GLXMAW", "setting": "[1]; rate 0.2500 kg/ha", "value": 3.0}, {"measurement": "herbicidal rating CHEAL", "setting": "[2]; rate 0.0156 kg/ha", "value": 4.0}, {"measurement": "herbicidal rating CHEAL", "setting": "[2]; rate 0.0313 kg/ha", "value": 7.0}, {"measurement": "herbicidal rating CHEAL", "setting": "[2]; rate 0.0625 kg/ha", "value": 9.0}, {"measurement": "herbicidal effect rating, ORYSAT (rice tolerance)", "setting": "ORYSAT (Rice, Tebonnet)", "value": 0.0}, {"measurement": "Preemergence herbicidal rating ECHCG", "setting": "ECHCG (Barnyardgrass); rate 0.0156 kg/ha", "value": 0.0}, {"measurement": "Preemergence herbicidal rating ECHCG", "setting": "ECHCG (Barnyardgrass); rate 0.0313 kg/ha", "value": 0.0}, {"measurement": "Preemergence herbicidal rating ECHCG", "setting": "ECHCG (Barnyardgrass); rate 0.0625 kg/ha", "value": 0.0}, {"measurement": "Preemergence herbicidal rating ECHCG", "setting": "ECHCG (Barnyardgrass); rate 0.1250 kg/ha", "value": 0.0}, {"measurement": "Preemergence herbicidal rating ECHCG", "setting": "ECHCG (Barnyardgrass); rate 0.2500 kg/ha", "value": 1.0}, {"measurement": "herbicidal rating IPOHE", "setting": "[3]; rate 0.0156 kg/ha", "value": 9.0}, {"measurement": "herbicidal rating IPOHE", "setting": "[3]; rate 0.0313 kg/ha", "value": 9.0}, {"measurement": "herbicidal rating IPOHE", "setting": "[3]; rate 0.0625 kg/ha", "value": 9.0}, {"measurement": "Preemergence herbicidal rating GALAP", "setting": "GALAP (Galium); rate 0.0156 kg/ha", "value": 0.0}, {"measurement": "Preemergence herbicidal rating GALAP", "setting": "GALAP (Galium); rate 0.0313 kg/ha", "value": 0.0}, {"measurement": "Preemergence herbicidal rating GALAP", "setting": "GALAP (Galium); rate 0.0625 kg/ha", "value": 0.0}, {"measurement": "Preemergence herbicidal rating GALAP", "setting": "GALAP (Galium); rate 0.1250 kg/ha", "value": 0.0}, {"measurement": "Preemergence herbicidal rating GALAP", "setting": "GALAP (Galium); rate 0.2500 kg/ha", "value": 1.0}]}, {"smiles": "Cn1c(C(F)(F)F)cc(=O)n(-c2cc(N=C3SCC(=O)N3Cc3ccc(Br)cc3)c(Cl)cc2F)c1=O", "note": "[Compound 148, 3-{5-{[3-(p-Bromobenzyl)-4-oxo-2-thiazolidinyl-idene]amino}-4-chloro-2-fluorophenyl}-1-methyl-6-(trifluoromethyl)-2,4(1H,3H)-pyrimidinedione]", "values": [{"measurement": "Preemergence herbicidal rating GLXMAW", "setting": "[1]; rate 0.0313 kg/ha", "value": 0.0}, {"measurement": "Preemergence herbicidal rating GLXMAW", "setting": "[1]; rate 0.0625 kg/ha", "value": 0.0}, {"measurement": "Preemergence herbicidal rating GLXMAW", "setting": "[1]; rate 0.1250 kg/ha", "value": 0.0}, {"measurement": "Preemergence herbicidal rating GLXMAW", "setting": "[1]; rate 0.2500 kg/ha", "value": 0.0}, {"measurement": "herbicidal rating CHEAL", "setting": "[2]; rate 0.0156 kg/ha", "value": 4.0}, {"measurement": "herbicidal rating CHEAL", "setting": "[2]; rate 0.0313 kg/ha", "value": 7.0}, {"measurement": "herbicidal rating CHEAL", "setting": "[2]; rate 0.0625 kg/ha", "value": 7.0}, {"measurement": "herbicidal effect rating, ORYSAT (rice tolerance)", "setting": "ORYSAT (Rice, Tebonnet)", "value": 0.0}, {"measurement": "Preemergence herbicidal rating ECHCG", "setting": "ECHCG (Barnyardgrass); rate 0.0313 kg/ha", "value": 0.0}, {"measurement": "Preemergence herbicidal rating ECHCG", "setting": "ECHCG (Barnyardgrass); rate 0.0625 kg/ha", "value": 0.0}, {"measurement": "Preemergence herbicidal rating ECHCG", "setting": "ECHCG (Barnyardgrass); rate 0.1250 kg/ha", "value": 0.0}, {"measurement": "Preemergence herbicidal rating ECHCG", "setting": "ECHCG (Barnyardgrass); rate 0.2500 kg/ha", "value": 0.0}, {"measurement": "herbicidal rating IPOHE", "setting": "[3]; rate 0.0156 kg/ha", "value": 9.0}, {"measurement": "herbicidal rating IPOHE", "setting": "[3]; rate 0.0313 kg/ha", "value": 9.0}, {"measurement": "herbicidal rating IPOHE", "setting": "[3]; rate 0.0625 kg/ha", "value": 9.0}, {"measurement": "Preemergence herbicidal rating GALAP", "setting": "GALAP (Galium); rate 0.0313 kg/ha", "value": 0.0}, {"measurement": "Preemergence herbicidal rating GALAP", "setting": "GALAP (Galium); rate 0.0625 kg/ha", "value": 0.0}, {"measurement": "Preemergence herbicidal rating GALAP", "setting": "GALAP (Galium); rate 0.1250 kg/ha", "value": 0.0}, {"measurement": "Preemergence herbicidal rating GALAP", "setting": "GALAP (Galium); rate 0.2500 kg/ha", "value": 0.0}]}, {"smiles": "CSCCN1C(=O)CSC1=Nc1cc(-n2c(=O)cc(C(F)(F)F)n(C)c2=O)c(F)cc1Cl", "note": "[Compound 157]", "values": [{"measurement": "Preemergence herbicidal rating GLXMAW", "setting": "[1]; rate 0.0313 kg/ha", "value": 1.0}, {"measurement": "Preemergence herbicidal rating GLXMAW", "setting": "[1]; rate 0.0625 kg/ha", "value": 0.0}, {"measurement": "Preemergence herbicidal rating GLXMAW", "setting": "[1]; rate 0.1250 kg/ha", "value": 2.0}, {"measurement": "Preemergence herbicidal rating GLXMAW", "setting": "[1]; rate 0.2500 kg/ha", "value": 4.0}, {"measurement": "herbicidal rating CHEAL", "setting": "[2]; rate 0.0156 kg/ha", "value": 2.0}, {"measurement": "herbicidal rating CHEAL", "setting": "[2]; rate 0.0313 kg/ha", "value": 4.0}, {"measurement": "herbicidal rating CHEAL", "setting": "[2]; rate 0.0625 kg/ha", "value": 9.0}, {"measurement": "herbicidal effect rating, ORYSAT (rice tolerance)", "setting": "ORYSAT (Rice, Tebonnet)", "value": 0.0}, {"measurement": "Preemergence herbicidal rating ECHCG", "setting": "ECHCG (Barnyardgrass); rate 0.0313 kg/ha", "value": 0.0}, {"measurement": "Preemergence herbicidal rating ECHCG", "setting": "ECHCG (Barnyardgrass); rate 0.0625 kg/ha", "value": 0.0}, {"measurement": "Preemergence herbicidal rating ECHCG", "setting": "ECHCG (Barnyardgrass); rate 0.1250 kg/ha", "value": 1.0}, {"measurement": "Preemergence herbicidal rating ECHCG", "setting": "ECHCG (Barnyardgrass); rate 0.2500 kg/ha", "value": 0.0}, {"measurement": "herbicidal rating IPOHE", "setting": "[3]; rate 0.0156 kg/ha", "value": 3.0}, {"measurement": "herbicidal rating IPOHE", "setting": "[3]; rate 0.0313 kg/ha", "value": 7.0}, {"measurement": "herbicidal rating IPOHE", "setting": "[3]; rate 0.0625 kg/ha", "value": 6.0}, {"measurement": "Preemergence herbicidal rating GALAP", "setting": "GALAP (Galium); rate 0.0313 kg/ha", "value": 0.0}, {"measurement": "Preemergence herbicidal rating GALAP", "setting": "GALAP (Galium); rate 0.0625 kg/ha", "value": 0.0}, {"measurement": "Preemergence herbicidal rating GALAP", "setting": "GALAP (Galium); rate 0.1250 kg/ha", "value": 0.0}, {"measurement": "Preemergence herbicidal rating GALAP", "setting": "GALAP (Galium); rate 0.2500 kg/ha", "value": 4.0}]}]}
